Measurements taken from publication PMC7948490, “Mechanochemical properties of human myosin-1C are modulated by isoform-specific differences in the N-terminal extension” (The Journal of Biological Chemistry, 2020).

Legend:
[1] = target: T1, Myo1C^35-ΔTH1 (acto·Myo1C^35-ΔTH1) (Homo sapiens, UniProt O00159); assay: stopped-flow, ADP inhibition of ATP-induced dissociation from pyrene-labeled F-actin, slow-phase amplitude fraction; assay type: binding
T1 construct: 35-residue N-terminal extension + motor domain + 3 IQ motifs + post-IQ; C-terminal 176-residue TH1 domain replaced by C-terminal octa-histidine tag; coproduced with human calmodulin in baculovirus/Sf9; with Calmodulin-1; Actin, alpha skeletal muscle (Gallus gallus, chicken pectoralis major muscle F-actin, pyrene-labeled)
Excerpt: stopped-flow, ADP inhibition of ATP-induced dissociation from pyrene-labeled F-actin, slow-phase amplitude fraction on Myo1C^35-ΔTH1 (acto·Myo1C^35-ΔTH1)

[2] = target: T1, Myo1C^35-ΔTH1 (acto·Myo1C^35-ΔTH1); assay: stopped-flow, ATP-induced dissociation from pyrene-labeled F-actin, fast phase; assay type: binding
Excerpt: stopped-flow, ATP-induced dissociation from pyrene-labeled F-actin, fast phase on Myo1C^35-ΔTH1 (acto·Myo1C^35-ΔTH1)

T1 sequence (O00159 1-887, stated change not applied): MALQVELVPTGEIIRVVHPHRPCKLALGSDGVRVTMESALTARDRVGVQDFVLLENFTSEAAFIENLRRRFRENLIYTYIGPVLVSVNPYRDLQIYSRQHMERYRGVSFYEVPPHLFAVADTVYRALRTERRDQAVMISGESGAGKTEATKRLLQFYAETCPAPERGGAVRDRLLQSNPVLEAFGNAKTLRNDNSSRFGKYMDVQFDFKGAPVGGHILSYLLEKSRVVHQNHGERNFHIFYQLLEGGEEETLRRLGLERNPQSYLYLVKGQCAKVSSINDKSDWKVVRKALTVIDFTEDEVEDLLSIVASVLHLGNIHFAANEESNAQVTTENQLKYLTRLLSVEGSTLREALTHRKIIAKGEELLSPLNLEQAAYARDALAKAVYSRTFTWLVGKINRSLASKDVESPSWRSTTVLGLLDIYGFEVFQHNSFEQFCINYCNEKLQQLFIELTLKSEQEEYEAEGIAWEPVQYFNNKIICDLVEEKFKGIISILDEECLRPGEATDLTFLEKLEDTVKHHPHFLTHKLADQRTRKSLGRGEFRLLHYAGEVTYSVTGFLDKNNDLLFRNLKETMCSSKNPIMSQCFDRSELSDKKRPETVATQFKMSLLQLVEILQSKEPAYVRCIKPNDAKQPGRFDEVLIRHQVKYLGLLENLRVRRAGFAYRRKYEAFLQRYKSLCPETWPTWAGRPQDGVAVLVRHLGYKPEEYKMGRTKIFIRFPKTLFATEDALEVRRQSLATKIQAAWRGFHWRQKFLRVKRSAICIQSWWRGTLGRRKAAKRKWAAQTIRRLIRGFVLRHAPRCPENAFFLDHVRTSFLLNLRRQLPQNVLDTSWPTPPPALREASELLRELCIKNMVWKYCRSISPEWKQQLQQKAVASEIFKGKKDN

Structure (SMILES)	Kd [1] [µM]	Kd [2] [µM]
Nc1ncnc2c1ncn2[C@@H]1O[C@H](COP(=O)(O)OP(=O)(O)O)[C@@H](O)[C@H]1O [ADP]	0.23 ± 0.03	
Nc1ncnc2c1ncn2[C@@H]1O[C@H](COP(=O)(O)OP(=O)(O)OP(=O)(O)O)[C@@H](O)[C@H]1O [ATP]		405 ± 79
